Patent publication US9364479B2, “Use of a receptor-type kinase modulator for treating polycystic kidney disease” (SYMPHONY EVOLUTION, INC., priority 2010, dated 2016)

Experiments:
[1] = system: panel of 10 tyrosine kinases and 55 serine-threonine kinases; assay: Kinase panel screen; assay type: biochemical; conditions: incl. insulin and IGF-1 receptor, CDKs, SAPKs, PKC isoforms
[2] = molecular target: EGFR WT (pCMV/Lx-1) (Homo sapiens, UniProt P00533); assay: EGFR phosphorylation ELISA in transfected Lx-1 cells
From the text: Lx-1 cells were used because they lack background EGFR activity. A clone corresponding to the longest EGFR isoform (Genbank accession no. NM_005228.3/NP_005219.2 #21-176, Upstate Biotechnology) was used as a template to produce two mutant EGFR genes (coding for L858R and L861Q) by site-directed mutagenesis. The WT and the two sequence-verified mutants were transferred to a COOH-terminal Flag-tagged retroviral cytomegalovirus promoter-driven mammalian expression vector. The two Tet-On expression vectors, EGFR WT (Tet-On) and EGFRvIII (Tet-On), which were COOH-terminally Flag tagged, were generously provided by Dr. Abhijit Guha (University of Toronto, Toronto, Ontario, Canada).
Transient transfections of Lx-1 cells were done using Lipofectamine 2000 (Invitrogen) according to the manufacturer's protocol. For transfections of the WT, L858R, and L861Q constructs, 1 μg plasmid DNA was used for each transfection (each well of a 12-well plate). […]
For the EGFR phosphorylation ELISA, Reacti-Bind streptavidin-coated plates (Pierce) were coated with 2 μg/mL biotin-conjugated anti-Flag antibody (Sigma). […] Horseradish peroxidase activity was determined by reading the plates in a Victor2 plate reader following addition of the ELISA Femto substrate.

[3] = system: Nicotinic (a-bungarotoxin insensitive); assay: NovaScreen assay; assay type: binding
[4] = system: A431 tumors; assay: Immunohistochemical analysis of A431 tumors; assay type: in vivo, mouse; conditions: 14-day dosing
Protocol: For immunohistochemical analysis of H1975, MDA-MB-231 and other xenografts, tumors were excised after euthanasia and fixed in zinc fixative (BD Biosciences) for 48 h before being processed into paraffin blocks. Serial sections at 5 μm were obtained from the area of largest possible surface for each tumor and stained using standard methods. The following antibodies were used: Ki67 (SP6; Labvision), CD31 (MECA.32; BD Biosciences), pERK^Thr202/Tyr204 (phospho-p44/42 mitogen-activated protein kinase; Cell Signaling Technology), pAKT^Ser473 (Cell Signaling Technology), and pEGFR^Tyr1068 (Cell Signaling Technology). For immunofluorescent staining, sections were then incubated with Alexa 594-conjugated goat anti-rabbit secondary antibody (Invitrogen) and mounted in Fluorescent Mounting Medium (DAKO) containing 4′,6-diamidino-2-phenylindole (Molecular Probes) as a nuclear counterstain. Fluorescent staining was visualized using a Zeiss Axiolmager and digitally captured using a Zeiss high-resolution camera coupled to AxioVision image analysis software. Two to three nonoverlapping representative fields were captured at ×200 or ×400 magnification depending on histologic readout and quantified using the integrated morphometric analysis functions in Metamorph software (Universal Imaging Corp.). Apoptotic cells were detected using terminal deoxynucleotidyl transferase-mediated dUTP nick end labeling in situ cell death detection kit according to the manufacturer's instructions (Roche Diagnostics GmbH).
CD31-positive tumor vessels, Ki67-positive proliferating cells, and pERK staining in each tumor section were identified and quantified using the integrated morphometric analysis functions in the ACIS automatic cellular imaging system (Clarient, Inc.) and reviewed by a blinded observer. Number of CD31-positive vessels were identified across 5 to 10 randomly chosen fields of equal size at ×100 magnification in viable tumor tissue and calculated as number of vessels per square millimeter for each tumor, averaged for each treatment group, and compared with vehicle-treated controls. Percentage Ki67-positive cells were calculated as the ratio between Ki67-positive cells divided by the total number of cells identified across 5 to 10 randomly chosen fields of equal size in viable tumor tissue. The results for each tumor and treatment group were averaged and compared with vehicle-treated controls. The level of pERK staining was determined as described above and calculated as the ratio of antibody staining divided by the total number of cells identified, averaged for each treatment group, and compared with vehicle-treated controls.

[5] = system: Muscarinic, Non-selective, Peripheral; assay: NovaScreen assay; assay type: binding
[6] = molecular target: T1, Endothelin, ET-B (Human) (Homo sapiens, UniProt P24530); assay: NovaScreen assay; assay type: binding; conditions: read-out: Inhibition, 10 μM XL-647
T1 construct: NovaScreen

[7] = molecular target: T2, Monoamine Oxidase B, Peripheral (Rattus norvegicus, UniProt P19643); assay: NovaScreen assay; assay type: biochemical; conditions: read-out: Inhibition, 10 μM XL-647
T2 construct: NovaScreen

[8] = molecular target: CDK2 (Homo sapiens, UniProt P24941); assay: In vitro kinase inhibition screen; assay type: biochemical
Protocol: (§1) Further screening was performed using the biochemical assay methods of Example 2. Additional description of the components and concentrations are summarized in Table 8, Table 9, and Table 10, below.

[9] = In vitro kinase inhibition screen; assay type: biochemical
Protocol: as §1

[10] = molecular target: PKBβ (Homo sapiens, UniProt P31751); assay: In vitro kinase inhibition screen; assay type: biochemical
Protocol: as §1

[11] = molecular target: CDK3 (Homo sapiens, UniProt Q00526); assay: In vitro kinase inhibition screen; assay type: biochemical
Protocol: as §1

[12] = molecular target: Clk2 (Homo sapiens, UniProt P49760); assay: In vitro kinase inhibition screen; assay type: biochemical
Protocol: as §1

[13] = molecular target: Syk (Homo sapiens, UniProt P43405); assay: In vitro kinase inhibition screen; assay type: biochemical
Protocol: as §1

[14] = molecular target: PDGFRβ (Homo sapiens, UniProt P09619); assay: In vitro kinase inhibition screen; assay type: biochemical
Protocol: as §1

[15] = molecular target: MAPK2 (Homo sapiens, UniProt P28482); assay: In vitro kinase inhibition screen; assay type: biochemical
Protocol: as §1

[16] = molecular target: CK2 (Homo sapiens, UniProt P68400); assay: In vitro kinase inhibition screen; assay type: biochemical
Protocol: as §1

[17] = molecular target: CDK7 (Homo sapiens, UniProt P50613); assay: In vitro kinase inhibition screen; assay type: biochemical
Protocol: as §1

[18] = molecular target: Fes (Homo sapiens, UniProt P07332); assay: In vitro kinase inhibition screen; assay type: biochemical
Protocol: as §1

[19] = molecular target: MAPK1 (Homo sapiens, UniProt P27361); assay: In vitro kinase inhibition screen; assay type: biochemical
Protocol: as §1

[20] = molecular target: Rsk3 (Homo sapiens, UniProt Q15349); assay: In vitro kinase inhibition screen; assay type: biochemical
Protocol: as §1

[21] = molecular target: PRAK (Homo sapiens, UniProt Q8IW41); assay: In vitro kinase inhibition screen; assay type: biochemical
Protocol: as §1

[22] = molecular target: CamKIV (Homo sapiens, UniProt Q16566); assay: In vitro kinase inhibition screen; assay type: biochemical
Protocol: as §1

[23] = molecular target: CDK5 (Homo sapiens, UniProt Q00535); assay: In vitro kinase inhibition screen; assay type: biochemical
Protocol: as §1

[24] = molecular target: SAPK4 (Homo sapiens, UniProt O15264); assay: In vitro kinase inhibition screen; assay type: biochemical
Protocol: as §1

[25] = molecular target: ROCK II (Homo sapiens, UniProt O75116); assay: In vitro kinase inhibition screen; assay type: biochemical
Protocol: as §1

[26] = molecular target: MKK6 (Homo sapiens, UniProt P52564); assay: In vitro kinase inhibition screen; assay type: biochemical
Protocol: as §1

Sequence of Fes (P07332 whole entry, species assumed): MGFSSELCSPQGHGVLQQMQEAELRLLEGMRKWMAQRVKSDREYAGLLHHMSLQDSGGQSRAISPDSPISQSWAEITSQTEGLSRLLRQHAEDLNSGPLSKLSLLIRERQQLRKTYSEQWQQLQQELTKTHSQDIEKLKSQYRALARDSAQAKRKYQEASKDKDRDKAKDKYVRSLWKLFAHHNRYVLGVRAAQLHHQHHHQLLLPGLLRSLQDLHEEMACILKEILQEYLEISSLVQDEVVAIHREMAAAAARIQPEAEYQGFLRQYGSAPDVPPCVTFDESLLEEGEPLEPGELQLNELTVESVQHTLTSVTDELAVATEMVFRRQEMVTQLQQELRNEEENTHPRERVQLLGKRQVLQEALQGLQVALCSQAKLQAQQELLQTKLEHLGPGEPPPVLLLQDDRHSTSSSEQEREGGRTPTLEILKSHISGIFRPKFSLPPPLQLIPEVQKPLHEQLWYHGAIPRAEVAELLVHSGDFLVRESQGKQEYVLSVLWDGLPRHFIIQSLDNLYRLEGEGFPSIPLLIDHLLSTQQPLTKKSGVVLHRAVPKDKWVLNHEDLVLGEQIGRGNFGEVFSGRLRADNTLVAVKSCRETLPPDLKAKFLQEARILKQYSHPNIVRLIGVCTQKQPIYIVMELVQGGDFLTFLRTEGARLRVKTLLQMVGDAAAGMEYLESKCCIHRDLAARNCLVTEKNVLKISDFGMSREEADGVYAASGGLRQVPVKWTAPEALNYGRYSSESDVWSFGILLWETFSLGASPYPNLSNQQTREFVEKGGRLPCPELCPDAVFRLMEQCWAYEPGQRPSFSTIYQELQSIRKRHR
Sequence of MAPK1 (P27361 whole entry): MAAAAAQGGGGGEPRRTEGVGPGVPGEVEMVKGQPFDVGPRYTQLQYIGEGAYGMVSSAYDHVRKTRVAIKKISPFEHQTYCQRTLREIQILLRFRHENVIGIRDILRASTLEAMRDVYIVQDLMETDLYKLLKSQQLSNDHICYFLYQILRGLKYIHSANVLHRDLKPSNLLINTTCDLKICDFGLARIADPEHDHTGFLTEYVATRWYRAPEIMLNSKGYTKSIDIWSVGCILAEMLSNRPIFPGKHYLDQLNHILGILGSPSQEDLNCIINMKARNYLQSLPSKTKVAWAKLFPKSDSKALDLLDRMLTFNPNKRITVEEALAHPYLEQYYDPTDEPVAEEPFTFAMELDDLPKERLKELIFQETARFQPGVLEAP
Sequence of CDK3 (Q00526 whole entry, species assumed): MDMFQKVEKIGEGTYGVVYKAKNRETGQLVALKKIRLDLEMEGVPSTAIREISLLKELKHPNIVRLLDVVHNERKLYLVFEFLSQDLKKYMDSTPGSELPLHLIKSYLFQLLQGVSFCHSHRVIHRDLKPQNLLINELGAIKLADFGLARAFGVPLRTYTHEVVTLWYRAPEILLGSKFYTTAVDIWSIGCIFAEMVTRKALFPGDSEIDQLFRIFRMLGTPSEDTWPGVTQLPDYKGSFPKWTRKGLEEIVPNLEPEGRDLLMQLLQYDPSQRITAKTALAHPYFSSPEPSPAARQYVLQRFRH
Sequence of CDK3 (P24864 whole entry partner, species assumed): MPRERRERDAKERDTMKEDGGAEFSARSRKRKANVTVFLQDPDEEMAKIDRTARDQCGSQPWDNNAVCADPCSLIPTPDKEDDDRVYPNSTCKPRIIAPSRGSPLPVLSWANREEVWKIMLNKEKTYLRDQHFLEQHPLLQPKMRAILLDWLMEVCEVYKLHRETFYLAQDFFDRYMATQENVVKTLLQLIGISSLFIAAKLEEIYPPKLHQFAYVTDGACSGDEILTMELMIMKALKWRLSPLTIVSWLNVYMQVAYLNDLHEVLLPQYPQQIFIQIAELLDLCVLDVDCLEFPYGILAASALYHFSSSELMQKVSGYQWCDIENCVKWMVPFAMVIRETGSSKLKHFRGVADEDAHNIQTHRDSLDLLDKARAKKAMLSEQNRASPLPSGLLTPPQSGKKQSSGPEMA
Sequence of MAPK2 (P28482 whole entry): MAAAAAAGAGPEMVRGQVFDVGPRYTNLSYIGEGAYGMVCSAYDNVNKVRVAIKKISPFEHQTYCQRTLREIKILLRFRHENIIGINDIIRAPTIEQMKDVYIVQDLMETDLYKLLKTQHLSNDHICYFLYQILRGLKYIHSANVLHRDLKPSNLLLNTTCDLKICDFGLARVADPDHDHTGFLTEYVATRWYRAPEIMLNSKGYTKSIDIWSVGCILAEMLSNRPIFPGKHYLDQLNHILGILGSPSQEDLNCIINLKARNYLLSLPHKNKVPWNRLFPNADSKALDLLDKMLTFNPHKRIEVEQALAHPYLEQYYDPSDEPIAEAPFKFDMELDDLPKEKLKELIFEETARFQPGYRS
Sequence of CamKIV (Q16566 whole entry, species assumed): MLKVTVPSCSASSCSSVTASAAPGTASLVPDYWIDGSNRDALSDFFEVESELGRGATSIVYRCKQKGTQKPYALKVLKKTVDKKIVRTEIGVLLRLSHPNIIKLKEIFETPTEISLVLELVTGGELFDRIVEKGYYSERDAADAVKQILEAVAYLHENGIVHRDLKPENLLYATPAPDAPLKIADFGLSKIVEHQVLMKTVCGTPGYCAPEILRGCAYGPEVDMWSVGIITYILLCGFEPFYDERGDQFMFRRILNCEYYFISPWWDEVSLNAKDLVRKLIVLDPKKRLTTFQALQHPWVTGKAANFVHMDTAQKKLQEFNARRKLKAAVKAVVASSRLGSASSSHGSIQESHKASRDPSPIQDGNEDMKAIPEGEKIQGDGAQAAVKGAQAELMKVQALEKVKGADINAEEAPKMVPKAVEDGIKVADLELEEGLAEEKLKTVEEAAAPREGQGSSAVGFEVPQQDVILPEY
Sequence of ROCK II (O75116 whole entry): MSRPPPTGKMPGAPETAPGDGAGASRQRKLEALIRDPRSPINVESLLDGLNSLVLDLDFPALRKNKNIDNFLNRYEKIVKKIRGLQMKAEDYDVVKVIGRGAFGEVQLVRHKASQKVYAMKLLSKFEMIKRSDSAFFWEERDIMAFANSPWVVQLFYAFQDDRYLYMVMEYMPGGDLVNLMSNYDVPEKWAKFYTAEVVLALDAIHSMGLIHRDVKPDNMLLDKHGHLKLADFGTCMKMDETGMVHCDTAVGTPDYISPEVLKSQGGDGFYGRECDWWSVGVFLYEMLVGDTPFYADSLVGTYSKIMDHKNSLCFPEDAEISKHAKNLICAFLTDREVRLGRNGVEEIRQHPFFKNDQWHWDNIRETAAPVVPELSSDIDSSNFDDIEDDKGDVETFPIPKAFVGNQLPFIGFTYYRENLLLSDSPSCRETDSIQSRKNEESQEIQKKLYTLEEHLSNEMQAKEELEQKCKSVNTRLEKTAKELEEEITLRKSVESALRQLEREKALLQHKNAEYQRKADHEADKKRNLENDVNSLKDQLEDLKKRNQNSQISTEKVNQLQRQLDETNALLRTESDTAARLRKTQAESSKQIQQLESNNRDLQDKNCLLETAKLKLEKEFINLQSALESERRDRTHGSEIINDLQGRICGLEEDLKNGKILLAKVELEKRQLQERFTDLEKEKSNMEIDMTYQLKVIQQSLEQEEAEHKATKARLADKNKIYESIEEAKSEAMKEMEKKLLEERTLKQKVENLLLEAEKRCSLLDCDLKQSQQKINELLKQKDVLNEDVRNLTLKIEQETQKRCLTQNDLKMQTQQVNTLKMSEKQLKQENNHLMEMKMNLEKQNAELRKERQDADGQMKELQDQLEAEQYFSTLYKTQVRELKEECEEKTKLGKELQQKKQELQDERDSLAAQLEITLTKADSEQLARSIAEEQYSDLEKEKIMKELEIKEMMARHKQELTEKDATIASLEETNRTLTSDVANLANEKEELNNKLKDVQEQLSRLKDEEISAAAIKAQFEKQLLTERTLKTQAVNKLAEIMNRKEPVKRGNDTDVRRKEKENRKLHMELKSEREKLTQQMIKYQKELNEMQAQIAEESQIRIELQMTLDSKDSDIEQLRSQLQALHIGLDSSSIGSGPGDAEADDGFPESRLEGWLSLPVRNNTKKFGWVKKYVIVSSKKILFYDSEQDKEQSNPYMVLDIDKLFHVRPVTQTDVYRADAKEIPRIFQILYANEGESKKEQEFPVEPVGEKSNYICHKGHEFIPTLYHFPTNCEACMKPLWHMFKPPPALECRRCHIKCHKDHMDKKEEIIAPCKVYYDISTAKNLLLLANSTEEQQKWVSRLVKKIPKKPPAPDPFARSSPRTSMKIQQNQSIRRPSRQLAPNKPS
Sequence of CDK5 (Q00535 whole entry, species assumed): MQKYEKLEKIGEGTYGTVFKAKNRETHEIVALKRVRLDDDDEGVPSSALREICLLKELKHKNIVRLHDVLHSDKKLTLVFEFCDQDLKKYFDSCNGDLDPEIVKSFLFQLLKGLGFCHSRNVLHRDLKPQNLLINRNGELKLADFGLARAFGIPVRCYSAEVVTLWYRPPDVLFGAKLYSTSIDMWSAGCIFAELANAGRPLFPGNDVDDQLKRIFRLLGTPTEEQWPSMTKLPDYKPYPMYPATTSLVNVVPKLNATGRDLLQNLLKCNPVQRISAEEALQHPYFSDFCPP
Sequence of CDK5 (Q15078 whole entry partner, species assumed): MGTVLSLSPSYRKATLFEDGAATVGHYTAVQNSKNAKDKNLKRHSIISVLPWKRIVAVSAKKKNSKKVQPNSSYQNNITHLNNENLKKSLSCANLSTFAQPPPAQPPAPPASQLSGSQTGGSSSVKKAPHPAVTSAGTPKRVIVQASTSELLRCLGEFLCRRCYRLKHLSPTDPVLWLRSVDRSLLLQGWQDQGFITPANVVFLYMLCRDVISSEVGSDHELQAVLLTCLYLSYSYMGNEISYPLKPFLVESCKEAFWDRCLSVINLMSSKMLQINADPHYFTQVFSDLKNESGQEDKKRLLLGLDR

COc1cc2c(Nc3ccc(Cl)c(Cl)c3F)ncnc2cc1OC[C@@H]1C[C@@H]2CN(C)C[C@@H]2C1 [XL-647, N-(3,4-dichloro-2-fluorophenyl)-7-({[(3aR,5r,6aS)-2-methyloctahydrocyclopenta[c]pyrrol-5-yl]methyl}oxy)-6-(methyloxy)quinazolin-4-amine]
activity against kinase panel, in words [1]: inactive
IC50 [2]: 0.012 µM
Inhibition, 10 μM XL-647 [3]: 53.97%
CD31 Analysis % Reduction ([4]; 10 mg/kg): 33.5%
CD31 Analysis MVC ([4]; 10 mg/kg): 18.6
Ki67 Expression % Reduction ([4]; 10 mg/kg): 53.3%
Ki67 Expression % of Cells ([4]; 10 mg/kg): 17.6%
Necrosis % Increase ([4]; 10 mg/kg): 20.7%
CD31 Analysis % Reduction ([4]; 30 mg/kg): 43.2%
CD31 Analysis MVC ([4]; 30 mg/kg): 15.9
Ki67 Expression % Reduction ([4]; 30 mg/kg): 67.2%
Ki67 Expression % of Cells ([4]; 30 mg/kg): 12.3%
Necrosis % Increase ([4]; 30 mg/kg): 26.5%
CD31 Analysis % Reduction ([4]; 100 mg/kg): 87.3%
CD31 Analysis MVC ([4]; 100 mg/kg): 3.6
Ki67 Expression % Reduction ([4]; 100 mg/kg): 82.6%
Ki67 Expression % of Cells ([4]; 100 mg/kg): 6.5%
Necrosis % Increase ([4]; 100 mg/kg): 61.7%
IC50 [5]: 2.65 µM
Inhibition, 10 μM XL-647 ([5]; 10 μM): 87.74%
inhibition at 10 µM [6]: -13.6%
inhibition at 10 µM [7]: 2.03%
IC50 [8]: > 1 µM
IC50 [9]: > 1 µM
IC50 [10]: > 10 µM
IC50 [11]: > 1 µM
IC50 [12]: > 10 µM
IC50 [13]: > 1 µM
IC50 [14]: 0.346 ± 0.037 µM
IC50 [15]: > 1 µM
IC50 [16]: > 1 µM
IC50 [17]: > 1 µM
IC50 [18]: 0.474 µM
IC50 [19]: > 1 µM
IC50 [20]: > 1 µM
IC50 [21]: > 1 µM
IC50 [22]: > 1 µM
IC50 [23]: > 1 µM
IC50 [24]: > 1 µM
IC50 [25]: > 1 µM
IC50 [26]: > 1 µM
